Source: patent publication US20040249164A1, “Crystalline hydrates of nicotinic acid anilide and benzoyl anilide derivatives” (priority 2001, published 2004)

Key:
[1] = Physical properties of anhydrate and hydrate (Table 1); assay type: physicochemical
Description: 2-Chloro-N-(4′-chlorobiphenyl-2-yl)nicotinamide was obtained at the end of the synthesis as hot xylenic solution. Upon cooling slowly, virtually all of the active ingredient crystallized from xylene. After filtration, residual xylene was removed by drying in a vacuum drying oven, whereby the active ingredient was obtained in the form of the anhydrate. The physical properties are compiled in Table 1.
1 g of 2-chloro-N-(4′-chlorobiphenyl-2-yl)nicotinamide anhydrate was dissolved in 20 ml of THF at 40° C. and the solution was then poured into 20 ml of water. The material which had precipitated was filtered off with suction and dried at 40° C. in a drying oven.
The physical properties of the 2-chloro-N-(4′-chlorobiphenyl-2-yl)nicotinamide monohydrate thus repared are shown in Tabelle 1.

[2] = Particle size of the formulation on storage (Malvern Mastersizer); assay type: physicochemical; conditions: After eight milling passes, Dyno KDL mill
Description: 500 g of 2-chloro-N-(4′-chlorobiphenyl-2-yl)nicotinamide monohydrate were combined as described under A with adjuvants. After the mixture had been stirred briefly, it was pumped through a Dyno KDL mill (1.2 mm beads, milling space 1.2 l) at a rate of 2 l/h. The milling process was carried out without problems. No clogging of the mill or crystallization in the receiver was observed. After eight milling passes, a sufficiently fine particle size of 70% <2 μm (Malvern Mastersizer) was achieved, i.e. the particle diameter of 70% of the particles is <2 μm.
The data shown are the percentage of the particles which are smaller than 2 μm.

O.O=C(Nc1ccccc1-c1ccc(Cl)cc1)c1cccnc1Cl [Hydrate, 2-chloro-N-(4′-chlorobiphenyl-2-yl)nicotinamide monohydrate]
Water content [1]: 5% | particle size, share of particles <2 μm [2]: 70 % <2 μm

O=C(Nc1ccccc1-c1ccc(Cl)cc1)c1cccnc1Cl [Anhydrate, 2-chloro-N-(4′-chlorobiphenyl-2-yl)nicotinamide]
Water content [1]: <1%
